Reference: patent US5091379A, “Topical antinflammatory compositions with minimal systemic absorption” (Du Pont Merck Pharmaceutical Company, priority 1989, dated 1992)
Where “and” joins values, the source holds several entries; their conditions need not be identical. Equal entries are not always repeated.

Assays:
[1] = In vivo absorption: excretion of radioactivity in rat urine and feces; set-up: species or system Male Sprague-Dawley rats; conditions: for Percent of Dose Excreted in Feces / Percent of Dose Excreted in Urine / Percent of Dose Excreted, Total: IV 5 mg/kg
Protocol: Approximately 10 mg of 14C-2-phenylmethyl-1-naphthol and 4.99 g of unlabeled 2-phenylmethyl-1-naphthol were used in the preparation of a 100 g 5% ointment or cream. The ointment was a PEG-based ointment and the cream was an oil-in-water emulsion. The specific activities for the ointment and cream were 2.71 and 2.78 uCi/g, respectively. An IV dosing solution (2.5 mg/mL) was prepared prior to dose administration by dissolving radiolabeled 14C-2-phenylmethyl-1-naphthol and unlabeled compound (1:1.5 ratio) in a PEG 400/water (60/40 v/v) solution.
Male Sprague-Dawley rats weighing 240-300 g were used for the studies. Sixteen rats were shaved on the back one day prior to the treatment. Eight of the rats had the application site abraded by a diamond-tipped marker (2 parallel lines and 2 interceding lines). The abrasion penetrated only the stratum corneum, but not the dermis. A 0.5 g dose of 14C-2-phenylmethyl-1-naphthol ointment or cream was applied to an area of approximately 4 cm^2 on 4 nonabraded and 4 abraded rats. The treatment site was covered with gauze and occluded with a dental dam. It was further secured by micropore tape and a strip of adhesive elastoplast. Each rat was placed in an open metabolism cage. […] Four other rats weighing 270-320 g were given an intravenous dose.
In order to determine the percent of dose in the ointment or cream that was absorbed percutaneously into the systemic circulation, an IV dose of 14C-2-phenylmethyl-1-naphthol was given to rats. The total radioactivity excreted after the IV dose serves as a reference for evaluation of topical absorption. […] The reason for the low radioactivity recovery is unknown. The percutaneous absorption from the ointment was about 2% of the applied dose. On the other hand, absorption from the cream was much higher and was about 28% of the dose.

[2] = In vitro penetration through (inflammed) hairless mouse skin; type: in vitro ADME; conditions: Study I, 25 mg/0.1 ml acetone
Protocol: The acetone vehicles were allowed to dry. […] The donor chamber was sealed with parafilm.
Studies were performed in which skin inflammation was induced in hairless mice in vivo, and permeability of that skin was evaluated in vitro. The three studies differed in the methods of producing inflammation. A non-inflammed control was run for each. The formulations tested were the oil/water cream and PEG ointment containing excipients (See Table 2) as in the previous example. There was no difference between the control and inflammed skin in active compound flux in all studies and for all formulations, except study II with 5% cream. […] As with human skin, acetone and cream vehicles consistently gave higher skin penetration rates than the PEG ointment.

5-lipoxygenase = conditions: cited from earlier work
AA-induced edema = experiment: AA-induced ear edema, topical antiinflammatory activity; type: in vivo, Male CF1 mice; conditions: for % Inhibition: 3 h pretreatment
Protocol: The AA model was also used to evaluate and compare PEG ointment formulations containing 2-phenylmethyl-1-naphthol with oil/water cream formulations containing 2-phenylmethyl-1-naphthol. These comparisons are illustrated in Examples 5 to 7.
Male 18-20 gram CF1 mice were used in these experiments. AA was made up fresh daily in acetone at a concentration of about 100 mg/ml. 10 μl of the AA solution (1 mg AA) was applied to the inner surface of the ear to induce swelling. […] Control animals were pretreated about 3 hours before AA application with placebo vehicles (drug free ointment or cream) with 5 mg of vehicle applied to both ears. Drug-treated animals were pretreated about 3 hours before AA application with 5 mg of the vehicle containing active drug, applied to both ears. AA was applied to 1 ear of each mouse. One hour after AA challenge, the animals were euthanized by cervical dislocation and both ears were removed. 6 mm disks were then taken using a skin biopsy punch and weighed. Swelling was determined as the difference between the weights of the AA and vehicle treated ears. Percent inhibition of swelling was calculated as follows: [formula]
Table 7 summarizes the data for PEG ointment and oil/water cream formulations containing various concentrations of active compound. Each data point is the average of 2 experiments with 10 animals per treatment cell.

[3] = Hydrolysis of 2 to 3 in solution and during skin penetration; type: physicochemical

Oc1c(Cc2ccccc2)ccc2ccccc12 [14C-1, 14C-2-phenylmethyl-1-naphthol]
Percent of Dose Excreted in Feces ([1]; individual rats, 5 mg/kg): 38.86% and 38.32% and 40.39% and 37.91%
Percent of Dose Excreted in Urine ([1]; individual rats, 5 mg/kg): 8.55% and 7.84% and 8.96% and 8.74%
Percent of Dose Excreted, Total ([1]; individual rats, 5 mg/kg): 47.41% and 46.16% and 49.35% and 46.65%
Percent of Dose Excreted in Feces ([1]; mean of 4 rats): 38.87%
Percent of Dose Excreted in Urine ([1]; mean of 4 rats): 8.52%
Percent of Dose Excreted, Total ([1]; mean of 4 rats): 47.39%
percutaneous absorption ([1]; from PEG ointment, percent of applied dose): about 2%
percutaneous absorption ([1]; from cream, percent of dose): about 28%
detectable radioactivity in the urine ([1]; topical ointment or cream, daily collection): no detectable radioactivity was found in the urine

Oc1c(Cc2ccccc2)ccc2ccccc12 [compound 1, 2-(phenylmethyl)-1-naphthol]
Lag Time ([2]; AA inflammed skin): 13.8 ± 1.3 h
Lag Time ([2]; control skin): 10.8 ± 1.7 h
inhibition of 5-lipoxygenase (5-lipoxygenase): exceptionally potent inhibitors of 5-lipoxygenase
% Inhibition (AA-induced edema; PEG ointment, 0.5% 1): 15%
% Inhibition (AA-induced edema; PEG ointment, 1% 1): 62%
% Inhibition (AA-induced edema; PEG ointment, 5% 1): 70%
% Inhibition (AA-induced edema; PEG ointment, 10% 1): 90%
% Inhibition (AA-induced edema; cream, 0.5% 1): 26%
% Inhibition (AA-induced edema; cream, 1% 1): 60%
% Inhibition (AA-induced edema; cream, 5% 1): 86%
% Inhibition (AA-induced edema; cream, 10% 1): 87%
inhibiting the edema induced by topical arachidonic acid (AA-induced edema; mouse, in vivo): very potent in inhibiting the edema

CC(=O)Oc1c(Cc2ccccc2)ccc2c1ccn2C [compound 2, 1-methyl-4-acetoxy-5-phenylmethyl indole]
hydrolysis [3]: hydrolyzes to 1-methyl-4-hydroxy-5-phenylmethyl indole (3)
